The nature of this data set: Hydrodynamic radius (MALS) and diffusivity of cargo in PBS. Format: physicochemical. Conditions: for diffusivity value, D: corresponding to RH. On the procedure:
Values closer to 1 indicate more similar diffusivities of the OVA and Poly(I:C) (n=3). […] Values closer to 1 indicate that cargo diffusivity is limited by self-diffusion of the hydrogel (n=3).
OVA's hydrodynamic radius (RH) is 3.2 nm, corresponding to a diffusivity value, D, of 76.6 μm^2/s. Poly(I:C)'s was measured to be much larger, with an RH of 34.2 nm, using multi-angle light scattering (MALS), corresponding to a D value of 7.2 μm^2/s. This difference in size results in OVA having an over 10 times greater diffusivity than Poly(I:C) in PBS (FIG. 3C). […] The measured diffusivities for all experiments can be found in FIG. 16. With a standard injection volume in rodents (100 μL) and the release characteristics of PNP hydrogels, these OVA diffusivities correlate to release timeframes of approximately 2 and 3 weeks, respectively. Further, the ratio of OVA to Poly(I:C) diffusivities (DOVA/DPoly(I:C)) was 3.3 in the 1:5 gel, and only 1.4 in the 2:10 gel (FIG. 3C). When comparing the diffusivity of OVA to the self-diffusion of the hydrogel matrix (DOVA/DGel), which was determined by tracking the diffusivity of HPMC-C12 within the hydrogel, the ratio was 6.5 in the 1:5 gel, but only 4.7 in the 2:10 gel, while the ratio of Poly(I:C) to the hydrogel self-diffusion (DPoly(I:C)/DGel) was around 2 for the 1:5 gel and 3.5 for the 2:10 gel (FIG. 3D). […] The diffusion of OVA, however, is more limited by hydrogel self-diffusion in the 2:10 gel and appears to be small enough to diffuse more freely in the 1:5 gel (FIG. 3B). Accordingly, the diffusivity of both OVA and Poly(I:C) is restricted by the self-diffusion of the hydrogel network in the 2:10 gel and are thus similar to one another, enabling sustained co-delivery of the two cargo, despite their large difference in physicochemical properties.

With “Polyinosinic-polycytidylic acid [Poly(I:C)]”, the “hydrodynamic radius (RH)” value is 34.2 nm and the “size of Poly(I:C) relative to OVA” value turned out to be 10 times larger. For the same molecule, for the setting “in PBS”, the “diffusivity value, D” value was 7.2 μm^2/s.

B1: ovalbumin (protein, UniProt P01012 2-386, looked up)
Ovalbumin: GSIGAASMEFCFDVFKELKVHHANENIFYCPIAIMSALAMVYLGAKDSTRTQINKVVRFDKLPGFGDSIEAQCGTSVNVHSSLRDILNQITKPNDVYSFSLASRLYAEERYPILPEYLQCVKELYRGGLEPINFQTAADQARELINSWVESQTNGIIRNVLQPSSVDSQTAMVLVNAIVFKGLWEKAFKDEDTQAMPFRVTEQESKPVQMMYQIGLFRVASMASEKMKILELPFASGTMSMLVLLPDEVSGLEQLESIINFEKLTEWTSSNVMEERKIKVYLPRMKMEEKYNLTSVLMAMGITDVFSSSANLSGISSAESLKISQAVHAAHAEINEAGREVVGSAEAGVDAASVSEEFRADHPFLFCIKHIATNAVLFFGRCVSP
notes: commonly used model antigen
B1: the “hydrodynamic radius (RH)” value is recorded as 3.2 nm. Moreover, under “in PBS”, the “diffusivity of OVA relative to Poly(I:C)” value was “over 10 times greater” and the “diffusivity value, D” value worked out at 76.6 μm^2/s.

Values taken from patent US12433959B2, “Injectable hydrogels for controlled release of immunomodulatory compounds” (THE BOARD OF TRUSTEES OF THE LELAND STANFORD JUNIOR …, priority 2018, dated 2025).
